Laboratory results as given in patent publication US8652536B2, “Skin clarifying complex, use of said complex, cosmestic or pharmaceutical composition comprising said complex and method for application thereof” (Natura Cosmeticos S.A., priority 2009, dated 2014).

Columns and labels:
Assay type in all cases: cell-based
[1] = system: line B16 melanocytes; assay: cells; conditions: for amount of melanin, % control: vs Control DMSO
Experimental: The assay methodology for the test lasted for five days in which, initially, line B16 melanocytes were plated on 12 well-conditioned containers, at a rate of 75,000 cells/plate.
On the three following days, 10mg (11 μl to linoleic acid) of component in the mixture were diluted in 100 μl of DMSO (dimethyl-sulfoxide) and, then, 9.9 ml of DMEM (culture medium) serum free were added so as to finally obtain 1 mg/ml of stock solution.
Sequentially, these solutions were incubated at 37° C. to assist solubilization of the samples. 10% bovine fetal serum (BFS) were added to the final dilution.
The actives are: gallic acid and linoleic acid.
On day five of the test the cells were divided into two steps of characterization: • Assessment of melanin in which the cells were first “washed” with PBS and then the cellular layer was dissolved into 500 μl of 3N NaOH and the suspension homogenized by pipetting. Two 200 μl portions of suspension were plated for optical reading at 400 nm.

[2] = system: culture medium corresponding to the epidermis; assay: Melanin extracted from epidermis culture after 6 days of treatment; conditions: 6 days treatment, kojic acid 250 μM, A 25 μg/ml, B 75 μg/ml, A + B 25 + 75 μg/ml; for melanin extracted from epidermis, Mean (%): % of control; for Reduction (%) of melanin extracted from epidermis: vs control
Experimental: In another example samples containing an extract of Brazilian […] extract (A), linoleic acid (B) and a mixture of the active ingredients linoleic acid and gallic acid (A+B), respectively, were compared to a control and to kojic acid as far as the reduction of the amount of melanin is concerned. Each sample was applied to a culture medium corresponding to the epidermis and the concentrations of melanin were measured after 6 days of treatment.

[3] = system: 3T3 cells; assay: Phototoxicity test, Neutral Red capture with and without UVA radiation; conditions: with and without non-cytotoxic dose of UVA
Experimental: Cytotoxicity assay allows determining the cytotoxic concentration of an active, when 3T3 cells are incubated therewith for 24 hours. Toxicity is determined as a function of cell viability, monitored by incubation of 3T3 cells with Neutral Red, and essential dye incorporated by living cells 24 hours 24 hours after contacting the active. Such assessment uses methodologies established by the National Institute of Health (NIH), USA, acknowledged internationally (Guidance NIH, 2001). The phototoxicity test is based on a comparison of the toxicity of an active in the presence and absence of a non-cytotoxic dose of UVA radiation. Phototoxicity is measured by Neutral Red capture by those cells surviving incubation with the active, according to a protocol already established and standardized by COLIPA and OECD (ZEBET/ECVAM/COLIPA, 1998; OECD, 2004). Phototoxicity/photoirritation is defined as the toxic response caused after a first exposure of the skin to certain products/actives and the subsequent exposure to sun light or induced by an irradiation of the skin after systemic administration of an active/product.

[4] = system: 3T3 cells; assay: Cytotoxicity assay, Neutral Red, 24 hours incubation

Row | Structure (SMILES) | melanin synthesis, % control ([1]; comparison with pharmaceutical and market actives at the same concentration, printed 0.01 mg/ml, α-MSH, FIG. 4) | melanin extracted from epidermis, Mean (%) [2] | melanin extracted from epidermis, Mean [2] | Reduction (%) of melanin extracted from epidermis [2] | Reduction (%) of melanin extracted from epidermis ([2]; listed as kojic acid) | inhibition at 25 µg/mL ([1]; Melanocyte, active alone at 0.025 mg/ml (its concentration in the mixture), read-out: inhibition of melanin by active alone) | inhibition at 50 µg/mL ([1]; Melanocyte, active alone at 0.05 mg/ml (its concentration in the mixture), read-out: inhibition of melanin by active alone) | inhibition at 75 µg/mL ([1]; Melanocyte, active alone at 0.075 mg/ml (its concentration in the mixture), read-out: inhibition of melanin by active alone) | amount of melanin, % control ([1]; active alone at 0.025 mg/ml, α-MSH) | amount of melanin, % control ([1]; active alone at 0.05 mg/ml, α-MSH) | amount of melanin, % control ([1]; active alone at 0.075 mg/ml, α-MSH) | Reduction (%) of melanin extracted from epidermis ([2]; listed as B) | Reduction (%) of melanin extracted from epidermis ([2]; listed as sample B) | Phototoxicity [3] | Cytotoxicity [4]
1 | OC[C@H]1O[C@@H](Oc2ccc(O)cc2)[C@H](O)[C@@H](O)[C@@H]1O [Arbutin, reference compound] | 82.5 % control |  |  |  |  |  |  |  |  |  |  |  |  |  | 
2 | O=c1cc(CO)occ1O [Kojic acid, reference compound] |  | 78.98% | 20.95 µg/mL | 21.02% | about 21.02% |  |  |  |  |  |  |  |  |  | 
3 | CCCCC/C=C\C/C=C\CCCCCCCC(=O)O [linoleic acid] |  | 80.67% | 21.4 µg/mL |  |  | 8.1% | 15.9% | 19% | 91.9% control | 84.1% control | 81.0% control | 19.33% | 19.3% | Not phototoxic | Not cytotoxic
